Reference: PubChem BioAssay (NCI)
Several values for one entry are separate records, joined by “and”; a condition that tells them apart may be missing. Identical values can stand only once.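 Each compound was tested at five concentrations against cells in 96-well plates for 48 hours. The concentration for 50% growth inhibition is given as GI50. At the TGI there is no net growth.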

Legend:
Test in all cases: inhibition of tumour cell growth, NCI panel, 48 h
UACC-257 melanoma = test system: UACC-257 melanoma
RXF 393 renal = test system: RXF 393 renal
HOP-62 NSCLC = test system: HOP-62 NSCLC
KM12 colon = test system: KM12 colon
MCF7 breast = test system: MCF7 breast
OVCAR-4 ovarian = test system: OVCAR-4 ovarian
RPMI-8226 leukemia = test system: RPMI-8226 leukemia
MALME-3M melanoma = test system: MALME-3M melanoma
K-562 leukemia = test system: K-562 leukemia
CCRF-CEM leukemia = test system: CCRF-CEM leukemia

## CN(CCCCCCCCNc1ccnc2ccccc12)Cc1ccc(-c2ccc(-c3ccc(C#N)cc3)s2)cc1
UACC-257 melanoma
  GI50: 0.482 µM
  TGI: 1.6 µM
RXF 393 renal
  GI50: 1.13 µM
  TGI: 2.54 µM
HOP-62 NSCLC
  GI50: 0.685 µM
  TGI: 2.5 µM
KM12 colon
  GI50: 0.667 µM
  TGI: 2.17 µM
MCF7 breast
  GI50: 0.183 µM
  TGI: 0.533 µM
OVCAR-4 ovarian
  GI50: 0.139 µM
  TGI: 1.99 µM
RPMI-8226 leukemia
  GI50: 0.164 µM
  TGI: 0.571 µM
MALME-3M melanoma
  GI50: 0.903 µM
  TGI: 2.21 µM
K-562 leukemia
  GI50: 0.0172 µM
  TGI: 0.107 µM

## COc1ccc2[nH]cc(Cc3c[nH]c4ccc(OC)cc34)c2c1
UACC-257 melanoma
  GI50: 32.4 µM
  TGI: 88.1 µM
RXF 393 renal
  GI50: 28 µM
  TGI: 54.7 µM
KM12 colon
  GI50: 19 µM
  TGI: 41.4 µM
MCF7 breast
  GI50: 28.7 µM
  TGI: > 100 µM
OVCAR-4 ovarian
  GI50: 17.6 µM
  TGI: 40.3 µM
RPMI-8226 leukemia
  GI50: 20.8 µM
  TGI: 40.3 µM
K-562 leukemia
  GI50: 19.1 µM
  TGI: 71.4 µM

## C=C1C(=O)O[C@H]2[C@H]1CC/C(CNC(=O)C(C)c1ccc(CC(C)C)cc1)=C\CC[C@@]1(C)O[C@@H]21 (some centres undefined)
UACC-257 melanoma
  GI50: 1.56 µM
  TGI: 3.12 µM
RXF 393 renal
  GI50: 1.31 µM
  TGI: 2.61 µM
HOP-62 NSCLC
  GI50: 3.07 µM
  TGI: 12.2 µM
KM12 colon
  GI50: 2.38 µM
  TGI: 5.65 µM
MCF7 breast
  GI50: 1.62 µM
  TGI: 3.68 µM
OVCAR-4 ovarian
  GI50: 1.66 µM
  TGI: 3.13 µM
RPMI-8226 leukemia
  GI50: 2.29 µM
  TGI: 6.92 µM
MALME-3M melanoma
  GI50: 1.71 µM
  TGI: 3.36 µM
K-562 leukemia
  GI50: 2.29 µM
  TGI: 10.4 µM
CCRF-CEM leukemia
  GI50: 0.551 µM
  TGI: 7.49 µM

## C#Cc1cccc(Nc2ncnc3ccc(-c4cnc(N)nc4)cc23)c1
UACC-257 melanoma
  GI50: 6.57 µM
  TGI: 46 µM
RXF 393 renal
  GI50: 0.693 µM
  TGI: 3.44 µM
HOP-62 NSCLC
  GI50: 1.98 µM
  TGI: 12.4 µM
KM12 colon
  GI50: 4.57 µM
  TGI: 20.8 µM
MCF7 breast
  GI50: 1.8 µM
  TGI: 12.2 µM
OVCAR-4 ovarian
  GI50: 2.59 µM
  TGI: 14.8 µM
RPMI-8226 leukemia
  GI50: 1.43 µM
  TGI: 5.41 µM
MALME-3M melanoma
  GI50: 1.73 µM
  TGI: 12.7 µM
K-562 leukemia
  GI50: 3.42 µM
  TGI: > 100 µM
CCRF-CEM leukemia
  GI50: 2.6 µM
  TGI: > 100 µM

## O=C1NC(c2cccc3ccccc23)Nc2ccccc21 (centres undefined)
UACC-257 melanoma
  TGI: 32.6 µM
HOP-62 NSCLC
  GI50: 0.0317 µM
  TGI: 29.6 µM
KM12 colon
  TGI: 5.91 µM and 10.4 µM
MCF7 breast
  GI50: 0.284 µM
  TGI: 2.56 µM
OVCAR-4 ovarian
  GI50: 0.166 µM
  TGI: > 100 µM
RPMI-8226 leukemia
  TGI: 0.493 µM and 1.05 µM
MALME-3M melanoma
  GI50: 0.0263 µM
  TGI: 43.7 µM
K-562 leukemia
  GI50: 0.00758 µM
CCRF-CEM leukemia
  GI50: 0.0296 µM
  TGI: 0.538 µM

## CN(C)C[C@@H]1CCn2cc(c3ccccc32)C2=C(C(=O)NC2=O)c2cn(c3ccccc23)CCO1
UACC-257 melanoma
  GI50: 2.08 µM
  TGI: > 10 µM
RXF 393 renal
  GI50: 1.77 µM
  TGI: 5.17 µM
HOP-62 NSCLC
  GI50: 2.54 µM
  TGI: > 10 µM
KM12 colon
  GI50: 1.82 µM
  TGI: > 10 µM
MCF7 breast
  GI50: 1.74 µM
  TGI: > 10 µM
OVCAR-4 ovarian
  GI50: 2.58 µM
  TGI: > 10 µM
RPMI-8226 leukemia
  GI50: 1.13 µM
  TGI: 4.02 µM
MALME-3M melanoma
  GI50: 1.17 µM
  TGI: 5.01 µM
K-562 leukemia
  GI50: 0.916 µM
  TGI: 3.37 µM
CCRF-CEM leukemia
  GI50: 0.459 µM
  TGI: 2.73 µM

## CC(C)c1ccc(C(O)(C(=O)O)c2ccc(C(C)C)cc2)cc1
UACC-257 melanoma
  TGI: > 100 µM
RXF 393 renal
  TGI: > 100 µM
HOP-62 NSCLC
  TGI: > 100 µM
KM12 colon
  TGI: > 100 µM
MCF7 breast
  TGI: > 100 µM
OVCAR-4 ovarian
  TGI: > 100 µM
RPMI-8226 leukemia
  TGI: 72 µM
MALME-3M melanoma
  TGI: > 100 µM
K-562 leukemia
  TGI: > 100 µM
CCRF-CEM leukemia
  TGI: > 100 µM

## COc1ccc2c(c1)C(=O)/C(=C/c1cccc(OCC(=O)c3ccc([N+](=O)[O-])cc3)c1)CO2
UACC-257 melanoma
  GI50: 3.73 µM
  TGI: 10.2 µM
RXF 393 renal
  GI50: 1.89 µM
  TGI: 4.32 µM
HOP-62 NSCLC
  GI50: 2.13 µM
  TGI: 5.35 µM
KM12 colon
  GI50: 1.56 µM
  TGI: 3.26 µM
MCF7 breast
  GI50: 0.72 µM
  TGI: 3.68 µM
OVCAR-4 ovarian
  GI50: 4.36 µM
  TGI: 17.2 µM
RPMI-8226 leukemia
  GI50: 1.13 µM
MALME-3M melanoma
  GI50: 2.91 µM
  TGI: 10.9 µM
K-562 leukemia
  GI50: 1.96 µM
  TGI: > 22.4 µM
CCRF-CEM leukemia
  GI50: 2.32 µM

## CC(=O)OCC1OC([S-])C(OC(C)=O)C(OC(C)=O)C1OC(C)=O.[Au+].c1ccc(CN2[CH-]N(Cc3ccccc3)C(c3ccccc3)=C2c2ccccc2)cc1
UACC-257 melanoma
  GI50: 2.26 µM and 1 µM
  TGI: 9.22 µM and 3.12 µM
RXF 393 renal
  GI50: 1.71 µM and 0.527 µM
  TGI: 3.19 µM and 1.26 µM
HOP-62 NSCLC
  GI50: 4.56 µM and 1.11 µM
  TGI: 19.4 µM and 4.59 µM
KM12 colon
  GI50: 4.32 µM and 0.98 µM
  TGI: 16.9 µM and 5.14 µM
MCF7 breast
  GI50: 1.65 µM and 0.827 µM
  TGI: 3.52 µM and 2.04 µM
OVCAR-4 ovarian
  GI50: 3.54 µM and 0.688 µM
  TGI: 15.3 µM and 5.82 µM
RPMI-8226 leukemia
  TGI: 5.99 µM and 1.93 µM
MALME-3M melanoma
  GI50: 1.93 µM and 0.278 µM
  TGI: 4.29 µM and 1.24 µM
K-562 leukemia
  GI50: 2.59 µM and 0.397 µM
  TGI: 7.8 µM and 15.1 µM
CCRF-CEM leukemia
  GI50: 2.65 µM and 0.283 µM
  TGI: 13.8 µM and 9.52 µM

## C=C1C(=O)O[C@H]2C3OC3(C)CC/C=C(/C(=O)OC)[C@@H](OC(C)=O)[C@H](OC(=O)C3(C)OC3C)[C@H]12 (some centres undefined)
UACC-257 melanoma
  GI50: 1.42 µM and 0.434 µM
  TGI: 2.96 µM and 1.33 µM
RXF 393 renal
  GI50: 364 nM and 190 nM and 0.407 µg/mL
  TGI: 838 nM and 531 nM and 0.951 µg/mL
HOP-62 NSCLC
  GI50: 11.9 µM and 5.74 µg/mL
  TGI: 24.3 µM and 18.1 µg/mL
KM12 colon
  GI50: 9.13 µM and 370 nM and 2.36 µg/mL
  TGI: 1.64 µM and 7.08 µg/mL
MCF7 breast
  GI50: 0.334 µM
  TGI: 7.16 µM and 1.28 µM
OVCAR-4 ovarian
  GI50: 1.88 µM and 2.18 µg/mL
  TGI: 3.63 µM and 4.47 µg/mL
RPMI-8226 leukemia
  GI50: 0.329 µg/mL
  TGI: 1.21 µM and 2.66 µM and 0.941 µg/mL
MALME-3M melanoma
  GI50: 1.25 µM and 0.257 µM
  TGI: 4.35 µM and 0.941 µM
K-562 leukemia
  GI50: 416 nM and 0.359 µg/mL
  TGI: 1.15 µM and 2.25 µM and 1.15 µg/mL
CCRF-CEM leukemia
  GI50: 0.173 µM and 0.231 µM
  TGI: 0.461 µM and 1.15 µM

## COc1ccc(-c2nsc3c2NC(=O)CC3c2cccc(F)c2)cc1 (centres undefined)
RXF 393 renal
  GI50: 4.04 µM
  TGI: > 100 µM
HOP-62 NSCLC
  GI50: 8.79 µM
  TGI: > 100 µM
KM12 colon
  GI50: 2.48 µM
  TGI: > 100 µM
MCF7 breast
  GI50: 3.89 µM
  TGI: > 100 µM
OVCAR-4 ovarian
  GI50: 50.2 µM
  TGI: > 100 µM
RPMI-8226 leukemia
  GI50: 4.18 µM
  TGI: > 100 µM
MALME-3M melanoma
  GI50: 6.08 µM
  TGI: > 100 µM
K-562 leukemia
  GI50: 2.65 µM
  TGI: > 100 µM
CCRF-CEM leukemia
  GI50: 4.89 µM
  TGI: > 100 µM

## CN(C)c1ccc2cc3c(cc2c1)Oc1ccccc1N3.[Cl][Zn][Cl]
UACC-257 melanoma
  GI50: 3.16 µM
  TGI: 9.36 µM
RXF 393 renal
  GI50: 3.28 µM
  TGI: 9.01 µM
KM12 colon
  GI50: 13.2 µM
  TGI: 29.1 µM
MCF7 breast
  GI50: 1.53 µM
  TGI: 3.91 µM
OVCAR-4 ovarian
  GI50: 2.75 µM
  TGI: 13.6 µM
RPMI-8226 leukemia
  GI50: 3.98 µM
  TGI: 31 µM
MALME-3M melanoma
  GI50: 3.04 µM
  TGI: 9.6 µM
K-562 leukemia
  GI50: 3.05 µM
  TGI: > 100 µM
CCRF-CEM leukemia
  GI50: 3.26 µM
  TGI: 9.71 µM
